The results in this text go back to patent US20210040118A1, “IMMUNOMODULATORS, COMPOSITIONS AND METHODS THEREOF” (BETTA PHARMACEUTICALS CO., LTD, priority 2018, published 2021).

The first assay deals with T1, PD-1/PD-L1 (Homo sapiens, UniProt Q9NZQ7).
T1 construct: Recombinant human PD-L1 protein (19-238) with a His-tag at the C-terminus; purchased AcroBiosystems PD1-H5229 (PD-L1); PD1-H5257 (PD-1)
T1 sequence (Q9NZQ7 19-238): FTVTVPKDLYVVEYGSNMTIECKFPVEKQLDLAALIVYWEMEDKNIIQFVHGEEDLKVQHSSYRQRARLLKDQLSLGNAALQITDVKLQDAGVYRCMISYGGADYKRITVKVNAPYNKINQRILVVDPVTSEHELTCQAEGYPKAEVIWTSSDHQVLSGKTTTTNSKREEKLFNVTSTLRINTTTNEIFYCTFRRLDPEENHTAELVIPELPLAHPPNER
Briefly: PD-1/PD-L1 homogenous time-resolved fluorescence (HTRF) binding assay. To be noted: recombinant human PD-L1 (19-238) His-tag / human PD-1 (25-167) Fc tag, class symbols. How it is done: Resolved Fluorescence (HTRF) Binding Assay
The assays were conducted in a standard black 384-well polystyrene plate with a final volume of 20 μL. Inhibitors were first serially diluted in DMSO and then added to the plate wells before the addition of other reaction components. The final concentration of DMSO in the assay was 1%. The assays were carried out at 25° C. in the PBS buffer (pH 7.4) with 0.05% Tween-20 and 0.1% BSA. Recombinant human PD-L1 protein (19-238) with a His-tag at the C-terminus was purchased from AcroBiosy stems (PD1-H5229). Recombinant human PD-1 protein (25-167) with Fc tag at the C-terminus was also purchased from AcroBiosystems (PD1-H5257). PD-L1 and PD-1 proteins were diluted in the assay buffer and 10 μL was added to the plate well. Plates were centrifuged and proteins were preincubated with inhibitors for 40 min. The incubation was followed by the addition of […] of HTRF detection buffer supplemented with Europium cryptate-labeled anti-human IgG (PerkinElmer-AD0212) specific for Fc and anti-His antibody conjugated to SureLight®-Allophycocyanin (APC, PerkinElmer-AD0059H). After centrifugation, the plate was incubated at 25° C. for 60 min. Before reading on a PHERAstar FS plate reader (665 nm/620 nm ratio). Final concentrations in the assay were […] PD1, 10 nM PD-L1, 1 nM europium anti-human IgG and 20 nM anti-His-Allophycocyanin. IC50 determination was performed by fitting the curve of percent control activity versus the log of the inhibitor concentration using the GraphPad Prism 5.0 software.
Data obtained for the Example compounds using the PD-1/PD-L1 homogenous time-resolved fluorescence (HTRF) binding assay described in Example A is provided in Table 4.
(In general: Time-resolved FRET reads energy transfer from a long-lived donor to a nearby acceptor.)
Consider “1,1′-bis((6,7-dihydro-4H-512-thiazolo[5,4-c]pyridin-2-yl)methyl)-4,4′-biindoline [Example 46]”, for which the IC50 (as a rule, the concentration at which inhibition is half-maximal) is under 0.025 µM.

As to “2-((3′-(6,6-dimethyl-5,6,7,8-tetrahydro-614-1,6-naphthyridin-7-ylium-2-carboxamido)-2,2′-dimethyl-[1,1′-biphenyl]-3-yl)carbamoyl)-6,6-dimethyl-5,6,7,8-tetrahydro-1,6-naphthyridin-6-ium chloride [Example 171]”, the IC50 was under 0.025 µM.

With `Cc1c(NC(=O)c2nnc([C@@H]3CCCN3)s2)cccc1-c1cccc(NC(=O)c2nnc([C@@H]3CCCN3)s2)c1C` [Example 3, N,N′-(2,2′-dimethyl-[1,1′-biphenyl]-3,3′-diyl)bis(5-((S)-pyrrolidin-2-yl)-1,3,4-thiadiazole-2-carboxamide)], the IC50 was under 0.025 µM.

For `Cc1c(NC(=O)c2nc3c(s2)CN(CC(=O)O)CC3)cccc1-c1cccc(NC(=O)c2nc3c(s2)CN(CC(=O)O)CC3)c1C` [Example 4, 2,2′-((((2,2′-dimethyl-[1,1′-biphenyl]-3,3′-diyl)bis(azanediyl))bis(carbonyl))bis(6,7-dihydrothiazolo[5,4-c]pyridine-2,5(4H)-diyl))diacetic acid], the IC50 is under 0.025 µM.

On to `Cc1c(-c2cccc(N(C)C(=O)c3cc4c(s3)CNCC4)c2C)cccc1N(C)C(=O)c1cn2c(n1)CNCC2` [Example 5, N-(2,2′-dimethyl-3′-(N-methyl-5,6,7,8-tetrahydroimidazo[1,2-a]pyrazine-2-carboxamido)-[1,1′-biphenyl]-3-yl)-N-methyl-4,5,6,7-tetrahydrothieno[2,3-c]pyridine-2-carboxamide], for which the IC50 fell in the range of 0.1 to 0.2 µM.

As for `Cc1c(Nc2nccc3cc(CNCCO)cnc23)cccc1-c1cccc(Nc2nccc3cc(NCCO)cnc23)c1C` [Example 6, 2-(((8-((3′-((3-((2-hydroxyethyl)amino)-1,7-naphthyridin-8-yl)amino)-2,2′-dimethyl-[1,1′-biphenyl]-3-yl)amino)-1,7-naphthyridin-3-yl)methyl)amino)ethan-1-ol], the IC50 was under 0.025 µM.

Take `Cc1c(NC(=O)c2ncc(CNCCO)s2)cccc1-c1cccc(NC(=O)c2ncc(CNCCO)s2)c1C` [Example 7, N,N′-(2,2′-dimethyl-[1,1′-biphenyl]-3,3′-diyl)bis(5-(((2-hydroxyethyl)amino)methyl)thiazole-2-carboxamide)]: the IC50 was under 0.025 µM.

Consider `Cc1c(NC(=O)c2cn3c(n2)CNCC3)cccc1-c1cccc(NC(=O)c2cn3c(n2)CNCC3)c1C` [Example 8, N,N′-(2,2′-dimethyl-[1,1′-biphenyl]-3,3′-diyl)bis(5,6,7,8-tetrahydroimidazo[1,2-a]pyrazine-2-carboxamide)], for which the IC50 is under 0.025 µM.

`Cc1c(NC(=O)c2nnc([C@H](C)N)o2)cccc1-c1cccc(NC(=O)c2nnc([C@H](C)N)o2)c1C` [Example 9, N,N′-(2,2′-dimethyl-[1,1′-biphenyl]-3,3′-diyl)bis(5-((S)-1-aminoethyl)-1,3,4-oxadiazole-2-carboxamide)]: the IC50 was under 0.025 µM.

Take `Cc1c(NC(=O)c2cn3c(n2)CNCC3)cccc1-c1cccc(NC(=O)c2nc3c(s2)CNCC3)c1C` [Example 10, N-(2,2′-dimethyl-3′-(5,6,7,8-tetrahydroimidazo[1,2-a]pyrazine-2-carboxamido)-[1,1′-biphenyl]-3-yl)-4,5,6,7-tetrahydrothiazolo[5,4-c]pyridine-2-carboxamide]: the IC50 was under 0.025 µM.

Turning to `Cc1c(NC(=O)c2nc3c(s2)CNCC3)cccc1-c1cccc(NC(=O)c2nc3ccc(N)cc3s2)c1C` [Example 11, N-(3′-(6-aminobenzo[d]thiazole-2-carboxamido)-2,2′-dimethyl-[1,1′-biphenyl]-3-yl)-4,5,6,7-tetrahydrothiazolo[5,4-c]pyridine-2-carboxamide], the IC50 is 0.1 to 0.2 µM.

For `Cc1c(NC(=O)c2nc3cc(N)ccc3[nH]2)cccc1-c1cccc(NC(=O)c2nc3c(s2)CNCC3)c1C` [Example 12, N-(3′-(5-amino-1H-benzo[d]imidazole-2-carboxamido)-2,2′-dimethyl-[1,1′-biphenyl]-3-yl)-4,5,6,7-tetrahydrothiazolo[5,4-c]pyridine-2-carboxamide], the IC50 was 0.025 to 0.1 µM.

In the case of `Cc1c(NC(=O)c2nc3c(o2)CNCC3)cccc1-c1cccc(NC(=O)c2nc3c(o2)CNCC3)c1C` [Example 13, N,N′-(2,2′-dimethyl-[1,1′-biphenyl]-3,3′-diyl)bis(4,5,6,7-tetrahydrooxazolo[5,4-c]pyridine-2-carboxamide)], the IC50 was in the range of 0.025 to 0.1 µM.

In the case of `Cc1c(NC(=O)c2nc3c(o2)CNCC3)cccc1-c1cccc(NC(=O)c2nc3c(s2)CNCC3)c1C` [Example 14, N-(2,2′-dimethyl-3′-(4,5,6,7-tetrahydrothiazolo[5,4-c]pyridine-2-carboxamido)-[1,1′-biphenyl]-3-yl)-4,5,6,7-tetrahydrooxazolo[5,4-c]pyridine-2-carboxamide], the IC50 is under 0.025 µM.

For the compound `Cc1c(NC(=O)c2cc3c(s2)CCNC3)cccc1-c1cccc(NC(=O)c2nc3c(s2)CNCC3)c1C` [Example 15, N-(2,2′-dimethyl-3′-(4,5,6,7-tetrahydrothieno[3,2-c]pyridine-2-carboxamido)-[1,1′-biphenyl]-3-yl)-4,5,6,7-tetrahydrothiazolo[5,4-c]pyridine-2-carboxamide], the IC50 was under 0.025 µM.

For `Cc1c(NC(=O)c2nnc([C@H](C)N3CCCC[C@H]3C(=O)O)o2)cccc1-c1cccc(NC(=O)c2nnc([C@H](C)N3CCCC[C@H]3C(=O)O)o2)c1C` [Example 16, (2S,2'S)-1,1′-((1S,1'S)-((((2,2′-dimethyl-[1,1′-biphenyl]-3,3′-diyl)bis(azanediyl))bis(carbonyl))bis(1,3,4-oxadiazole-5,2-diyl))bis(ethane-1,1-diyl))bis(piperidine-2-carboxylic acid)], the IC50 was under 0.025 µM.

As for `Cc1c(NC(=O)c2nnc([C@H](C)N3CCCC[C@H]3C(=O)O)s2)cccc1-c1cccc(NC(=O)c2nnc([C@H](C)N3CCCC[C@H]3C(=O)O)s2)c1C` [Example 17, (2S,2'S)-1,1′-((1S,1'S)-((((2,2′-dimethyl-[1,1′-biphenyl]-3,3′-diyl)bis(azanediyl))bis(carbonyl))bis(1,3,4-thiadiazole-5,2-diyl))bis(ethane-1,1-diyl))bis(piperidine-2-carboxylic acid)], the IC50 was under 0.025 µM.

Staying with this assay, now noted: recombinant human PD-L1 (19-238) His-tag / human PD-1 (25-167) Fc tag, numeric values.
Turning to `Cc1c(NC(=O)c2nc3c(s2)CNCC3)cccc1-c1ccccc1` [Com. EX. No. 1, N-(2-methyl-[1,1′-biphenyl]-3-yl)-4,5,6,7-tetrahydrothiazolo[5,4-c]pyridine-2-carboxamide, reference compound], the concentration for half-maximal inhibition (IC50) is 0.212 µM.

As for `Cc1c(NC(=O)c2nc3c(s2)CNCC3)cccc1-c1cccc(NC(=O)c2nc3c(s2)CNCC3)c1C` [Example 1, N,N′-(2,2′-dimethyl-[1,1′-biphenyl]-3,3′-diyl)bis(4,5,6,7-tetrahydrothiazolo[5,4-c]pyridine-2-carboxamide)], the IC50 worked out at 0.00048 µM.

For `Cc1c(NC(=O)c2nc3c(s2)CN(C)CC3)cccc1-c1cccc(NC(=O)c2nc3c(s2)CN(C)CC3)c1C` [Example 2, N,N′-(2,2′-dimethyl-[1,1′-biphenyl]-3,3′-diyl)bis(5-methyl-4,5,6,7-tetrahydrothiazolo[5,4-c]pyridine-2-carboxamide)], the IC50 was 0.00074 µM.
